How the values were obtained:
[1] = system: Adenosine aptamer (Aptade), 4 bp (DNA, aptamer) ACCTGGGGGAGTATTGCGGAGGAAGGT; test: ThT fluorescence enhancement; conditions: 100 mM NaCl, 10 mM MgCl2; 10 mM PB pH 7; 100 nM aptamer
[2] = system: A30/T30 duplex (DNA, duplex) AAAAAAAAAAAAAAAAAAAAAAAAAAAAAA/TTTTTTTTTTTTTTTTTTTTTTTTTTTTTT; test: SGI staining fluorescence; conditions: 100 mM NaCl; 10 mM PB pH 7; 100 nM DNA, 0.5x SGI

binding [1]	binding [2]	Compound
yes	–	Cc1ccc2c(c1)sc(-c1ccc(N(C)C)cc1)[n+]2C
–	yes	CCCN(CCCN(C)C)c1cc(C=C2Sc3ccccc3N2C)c2ccccc2[n+]1-c1ccccc1

Reference: publication PMC9692703 (2022)
